In patent US9353104B2, “Substituted pyridizinone derivatives as PDE10 inhibitors” (priority 2013, dated 2016):

Biological target: human PDE10A2 (Homo sapiens (Human), UniProt Q9Y233)
Experiment: PDE10 fluorescence polarization (IMAP FP) inhibition assay
Type: biochemical
Settings: human PDE10A2 lysate, FAM-labeled cAMP 50 nM, room temperature; read-out: PDE10A Ki
Summary of the method: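 Cytoplasmic lysate of AD293 cells transiently expressing human PDE10A2, diluted for ~20% conversion of 50 nM FAM-cAMP, in 10 mM Tris pH 7.2, 10 mM MgCl2, 1 mM DTT, 0.01% Tween-20. Reaction 30 min at room temperature, read by IMAP fluorescence polarization; 10-point 3-fold titrations, 1% DMSO as 0%, reference PDE10 inhibitor at 5,000× Ki as 100%.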

human PDE10A2, sequence (Q9Y233 267-1055): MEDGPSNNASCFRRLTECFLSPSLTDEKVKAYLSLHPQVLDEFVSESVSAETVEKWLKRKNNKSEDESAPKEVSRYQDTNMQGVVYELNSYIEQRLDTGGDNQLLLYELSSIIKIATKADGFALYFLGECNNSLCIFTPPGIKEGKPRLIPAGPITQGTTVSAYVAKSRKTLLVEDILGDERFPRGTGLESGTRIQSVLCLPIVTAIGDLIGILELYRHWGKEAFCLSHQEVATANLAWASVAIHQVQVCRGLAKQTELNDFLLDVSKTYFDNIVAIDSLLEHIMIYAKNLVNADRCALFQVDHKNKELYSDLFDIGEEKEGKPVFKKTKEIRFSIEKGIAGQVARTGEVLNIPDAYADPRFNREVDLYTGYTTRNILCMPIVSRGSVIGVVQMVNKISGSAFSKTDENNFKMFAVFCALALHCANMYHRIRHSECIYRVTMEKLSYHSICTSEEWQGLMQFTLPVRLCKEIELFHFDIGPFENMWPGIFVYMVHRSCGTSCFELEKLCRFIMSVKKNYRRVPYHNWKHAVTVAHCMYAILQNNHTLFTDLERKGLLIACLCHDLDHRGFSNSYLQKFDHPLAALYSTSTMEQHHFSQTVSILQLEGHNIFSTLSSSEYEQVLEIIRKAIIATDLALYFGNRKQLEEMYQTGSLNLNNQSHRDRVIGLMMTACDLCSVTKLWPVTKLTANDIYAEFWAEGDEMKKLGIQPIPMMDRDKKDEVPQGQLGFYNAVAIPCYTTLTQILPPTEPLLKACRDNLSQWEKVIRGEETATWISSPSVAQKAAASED

Row | SMILES | Ki [nM]
1 | COc1ccc([C@H]2C[C@@H]2COc2cc(NCc3nnc(C)s3)c(=O)n(C)n2)nc1 [Example 4, 6-(((1S,2S)-2-(5-methoxy-pyridin-2-yl)cyclopropyl-)-methoxy)-2-methyl-4-((5-methyl-1,3,4-thiadiazol-2-yl)methylamino)pyridazin-3(2H)-one] | 0.015
2 | Cc1ccc([C@H]2C[C@@H]2COc2cc(NCc3ccnn3C)c(=O)n(C)n2)nc1 [Example 99, 2-methyl-4-(((1-methyl-1H-pyrazol-5-yl)methyl-)amino)-6-(((1S,2S)-2-(5-methylpyridin-2-yl)cyclo-propyl)methoxy)pyridazin-3(2H)-one] | 0.138
3 | COc1ccc([C@H]2C[C@@H]2COc2cc(NCc3ccc(C)nn3)c(=O)n(C)n2)nc1 [Example 76, 6-(((1S,2S)-2-(5-methoxy-pyridin-2-yl)cyclopropyl-)-methoxy)-2-methyl-4-(((6-methylpyridazin-3-yl)methyl)amino)pyridazin-3(2H)-one] | 0.039
4 | COc1ccc([C@H]2C[C@@H]2COc2cc(NCc3cn(C)nn3)c(=O)n(C)n2)nc1 [Example 147, 6-(((1S,2S)-2-(5-methoxy-pyridin-2-yl)-cyclopropyl-)methoxy)-2-methyl-4-((1-methyl-1H-1,2,3-triazol-4-yl)methylamino)pyridazin-3(2H)-one] | 0.066
5 | Cn1ccc([C@H]2C[C@@H]2COc2cc(NCc3nccs3)c(=O)n(C)n2)n1 [Example 47, 2-methyl-6-(((1S,2S)-2-(1-methyl-1H-pyrazol-3-yl)cyclopropyl)methoxy)-4-((thiazol-2-ylmethyl)amino)pyridazin-3(2H)-one] | 8.21
6 | CCc1cc(CNc2cc(OC[C@H]3C[C@@H]3c3ccn(C)n3)nn(C)c2=O)n(C)n1 [Example 139, 4-((3-ethyl-1-methyl-1H-pyrazol-5-yl)methylamino)-2-methyl-6-(((1S,2S)-2-(1-methyl-1H-pyrazol-3-yl)cyclopropyl)methoxy) pyridazin-3(2H)-one] | 0.295
7 | CCn1nc(OC[C@H]2C[C@@H]2c2ccc(OC)cn2)cc(NCc2nnc(C)s2)c1=O [Example 144, 2-ethyl-6-(((1S,2S)-2-(5-methoxypyridin-2-yl)cyclopropyl)methoxy)-4-((5-methyl-1,3,4-thiadiazol-2-yl)methylamino)pyridazin-3(2H)-one] | 0.032
8 | Cc1cnc(CNc2cc(OC[C@H]3C[C@@H]3c3ccc4c(n3)CCC4)nn(C)c2=O)s1 [Example 124, 6-(((1S,2S)-2-(6,7-dihydro-5H-cyclopenta-[b]pyridin-2-yl)cyclopropyl)methoxy)-2-methy-4-((5-methylthiazol-2-yl)-methylamino-)pyridazin-3(2H)-one] | 0.002
9 | Cc1ccc([C@H]2C[C@@H]2COc2cc(NCc3cnc(C)s3)c(=O)n(C)n2)nc1 [Example 13, 2-methyl-6-(((1S,2S)-2-(5-methylpyridin-2-yl)cyclopropyl)methoxy)-4-((2-methylthiazol-5-yl)methylamino)pyridazin-3(2H)-one] | 0.011
10 | Cc1ccc(CNc2cc(OC[C@H]3C[C@@H]3c3ccc(Cl)cn3)nn(C)c2=O)c(C)n1 [Example 54] | 0.019
11 | Cc1ccc([C@H]2C[C@@H]2COc2cc(NCc3cn(C)nc3C(F)(F)F)c(=O)n(C)n2)nc1 [Example 104, 2-methyl-4-(((1-methyl-3-(trifluoromethyl)-1H-pyrazol-4-yl)methyl)-amino)-6-(((1S,2S)-2-(5-methylpyridin-2-yl)cyclo-propyl)methoxy)pyridazin-3(2H)-one] | 0.056
12 | COc1ccc([C@H]2C[C@@H]2COc2cc(N(Cc3ccc(C)nc3C)Cc3ccc(C)nc3C)c(=O)n(C)n2)nc1 [Example 91, 4-(bis((2,6-dimethylpyridin-3-yl)methyl)amino)-6-(((1S,2S)-2-(5-methoxypyridin-2-yl)cyclopropyl)methoxy)-2-methylpyridazin-3(2H)-one] | 5.9
13 | COc1ccc(CNc2cc(OC[C@H]3C[C@@H]3c3ccc(C)cn3)nn(C)c2=O)cc1 [Example 8, 4-(4-methoxybenzylamino)-2-methyl-6-(((1S,2S)-2-(5-methylpyridin-2-yl)cyclopropyl)methoxy)-pyridazin-3(2H)-one] | 0.074
14 | Cc1ccc(CNc2cc(OC[C@H]3C[C@@H]3c3ccc(F)cn3)nn(C)c2=O)c(C)n1 [Example 53, 4-(((2,6-dimethylpyridin-3-yl)methyl)amino)-6-(((1S,2S)-2-(5-fluoro-pyridin-2-yl)cyclopropyl-)-methoxy)-2-methyl-pyridazin-3(2H)-one] | 0.034
15 | COc1ccc([C@H]2C[C@@H]2COc2cc(NCc3ccc(C)cn3)c(=O)n(C)n2)nc1 [Example 72, 6-(((1S,2S)-2-(5-methoxy-pyridin-2-yl)cyclopropyl-)-methoxy)-2-methyl-4-(((5-methylpyridin-2-yl)-methyl)amino)pyridazin-3(2H)-one] | 0.019
16 | Cc1nc(CNc2cc(OC[C@H]3C[C@@H]3c3ccn(C)n3)nn(C)c2=O)sc1C [Example 128, 4-((4,5-dimethylthiazol-2-yl)methylamino)-2-methyl-6-(((1S,2S)-2-(1-methyl-1H-pyrazol-3-yl)cyclo-propyl)methoxy)pyridazin-3(2H)-one] | 0.368
17 | CCn1ccc(CNc2cc(OC[C@H]3C[C@@H]3c3ccc(OC)cn3)nn(C)c2=O)n1 [Example 106, 4-(((1-ethyl-1H-pyrazol-3-yl)methyl)amino)-6-(((-1S,2S)-2-(5-methoxy-pyridin-2-yl)cyclopropyl-)methoxy)-2-methyl-pyridazin-3(2H)-one] | 5.89
18 | COc1ccc([C@H]2C[C@@H]2COc2cc(NCc3cccnc3)c(=O)n(C)n2)nc1 [Example 135, 6-(((1S,2S)-2-(5-methoxy-pyridin-2-yl)cyclopropyl-)methoxy)-2-methyl-4-(pyridin-3-ylmethylamino-)pyridazin-3(2H)-one] | 0.261
19 | COc1ccc([C@H]2C[C@@H]2COc2cc(NCc3cccnc3)c(=O)n(C)n2)nc1 [Example 68, 6-(((1S,25)-2-(5-methoxy-pyridin-2-yl)cyclopropyl-)-methoxy)-2-methyl-4-((pyridin-3-ylmethyl)-amino)pyridazin-3(2H)one] | 11.6
20 | COc1ccc([C@H]2C[C@@H]2COc2nn(C)c(=O)c(NCc3nnc(C)s3)c2Br)nc1 [Example 140, 5-bromo-6-(((1S,2S)-2-(5-methoxypyridin-2-yl)cyclopropyl)methoxy)-2-methyl-4-((5-methyl-1,3,4-thiadiazol-2-yl)methyl-amino)pyridazin-3(2H)-one] | 0.004
21 | COc1ccc([C@H]2C[C@@H]2COc2cc(NCc3cncc(C)c3)c(=O)n(C)n2)nc1 [Example 67, 6-(((1S,2S)-2-(5-methoxypyridin-2-yl)cyclopropyl)methoxy)-2-methyl-4-(((5-methylpyridin-3-yl)methyl)amino)pyridazin-3(2H)-one] | 0.049
22 | COc1ccc([C@H]2C[C@@H]2COc2cc(NCc3nc(C)ccc3C)c(=O)n(C)n2)nc1 [Example 71, 4-(((3,6-dimethylpyridin-2-yl)methyl)amino)-6-(((1S,2S)-2-(5-methoxy-pyridin-2-yl)cyclopropyl-)-methoxy)-2-methylpyridazin-3(2H)one] | 48.5
23 | COc1ccc([C@H]2C[C@@H]2COc2cc(NCc3cc(C)ccn3)c(=O)n(C)n2)nc1 [Example 105, 6-(((1S,2S)-2-(5-methoxy-pyridin-2-yl)cyclopropyl-)methoxy)-2-methyl-4-(((-4-methylpyridin-2-yl)-methyl)amino)pyridazin-3(2H)-one] | 0.276
24 | COc1ccc([C@H]2C[C@@H]2COc2cc(NCc3cc(C)no3)c(=O)n(C)n2)nc1 [Example 89, 6-(((1S,2S)-2-(5-methoxypyridin-2-yl)cyclopropyl)methoxy)-2-methyl-4-(((3-methylisoxazol-5-yl)methyl)amino)pyridazin-3(2H)-one] | 0.008
25 | Cc1cnn(C)c1CNc1cc(OC[C@H]2C[C@@H]2c2ccn(C)n2)nn(C)c1=O [Example 86, 4-(((1,4-dimethyl-1H-pyrazol-5-yl)methyl)amino)-2-methyl-6-(((1S,2S)-2-(1-methyl-1H-pyrazol-3-yl)cyclopropyl)methoxy)-pyridazin-3(2H)-one] | 9.4
26 | Cn1cc(CNc2cc(OC[C@H]3C[C@@H]3c3ccc(OC(F)F)cn3)nn(C)c2=O)cn1 [Example 30, 6-(((1S,2S)-2-(5-(difluoromethoxy)pyridin-2-yl)cyclopropyl)methoxy)-2-methyl-4-((1-methyl-1H-pyrazol-4-yl)methylamino)pyridazin-3(2H)-one] | 0.552
27 | Cc1cnc(CNc2cc(OC[C@H]3C[C@@H]3c3nn(C)c4ccccc34)nn(C)c2=O)s1 [Example 112, 2-methyl-6-(((1S,2S)-2-(1-methyl-1H-indazol-3-yl)cyclopropyl)methoxy)-4-((5-methylthiazol-2-yl)methylamino)pyridazin-3(2H)-one] | 1.4
28 | COc1ccc([C@H]2C[C@@H]2COc2cc(NCc3c[nH]nn3)c(=O)n(C)n2)nc1 [Example 146, 4-((1H-1,2,3-triazol-4-yl)methylamino)-6-(((1S,2S)-2-(5-methoxypyridin-2-yl)cyclopropyl)methoxy)-2-methylpyridazin-3(2H)-one] | 0.048
29 | COc1ccc([C@H]2C[C@@H]2COc2cc(NCc3ccnn3C)c(=O)n(C)n2)nc1 [Example 100, 6-(((1S,2S)-2-(5-methoxypyridin-2-yl)-cyclopropyl)methoxy)-2-methyl-4-(((1-methyl-1H-pyrazol-5-yl)methyl)-amino)pyridazin-3(2H)one] | 0.192
30 | Cc1cnc(CNc2cc(OC[C@H]3C[C@@H]3c3ccc(F)cn3)nn(C)c2=O)s1 [Example 32, 6-(((1S,2S)-2-(5-fluoropyridin-2-yl)cyclopropyl)methoxy)-2-methyl-4-((5-methylthiazol-2-yl)methylamino)pyridazin-3(2H)-one] | 0.176
